Values joined by “and” are separate entries in the source; they are usually repeats but may differ in a detail not shown here. Equal entries are not always repeated. Marks after values point to notes of the source that are not given here.
How the values were obtained:
[1] = test system: peripheral blood CD3+ T cells; assay: TCR/CD3 stimulated proliferation of liposome-transfected CD3+ T cells treated with 8-CPT-cAMP; format: cell-based, human; settings: for IC50: FIG. 10
Procedure: FIG. 8. Reversal of cAMP-mediated inhibition of TUR/CD3 stimulated T cell proliferation by the use of ribozyme to the RIα subunit of protein kinase A type I. TCR/CD3 stimulated proliferation of peripheral blood CD3+ T cells from normal healthy blood donor following treatment with liposomes alone (mock) or with liposomes and RIα ribozyme (RIα rbz, 10 μM) in the absence (solid bars) and presence (open bars) of 8-CPT-cAMP (12,5 μM).
FIG. 9. Reversal of cAMP-mediated inhibition of TCR/CD3 stimulated T cell proliferation by the use of competitor peptide to compete the TCR/CD3 associated anchoring of RIα subunit of protein kinase A type I in T cells. TCR/CD3 stimulated proliferation of peripheral blood CD3+ T cells from normal healthy blood donor following treatment with liposomes alone (mock) or with increasing concentrations (25 to 100 μM) of a competitor peptide (Ht-31) that competes anchoring, to PKA type II or a control peptide (Ht31-P).
FIG. 10. TCR/CD3 stimulated proliferation of peripheral blood CD3+ T cells in the presence of increasing, concentrations of 8-CPT-cAMP. Normalized levels of proliferation of T cells mock transfected with liposomes only (solid circles, continuous line) or incubated with liposomes and Ht31 peptide (35 μM) to compete anchoring of protein kinase A type I (open circles, dotted line) was assessed as [^3H]-thymidine incorporation after 48 h during which [^3H]-thymidine was added for the last 18 h. Note: right shift of the IC50 (arrow) from 1,8 to 4,8 μM in the presence of […].
When transfected as synthetic RNA ribozyme or as a synthetic RNA ribozyme stabilized by incorporation of 2-deoxycytosine and 2-deoxy-uracil analogs into peripheral blood CD3+ T cells, the ribozyme reduced levels of RIα protein to approximately 20% of control levels by removing the RIα mRNA. By this strategy, the majority of protein kinase A type 1 was removed from the T cells. We then assessed the immune responsiveness of CD3+ T cells transfected with ribozyme compared to control (mock) transfected T cells measured as T cell proliferation after activation of T cells by stimulation of the T cell receptor/CD3 complex (TCR/CD3). In order to simulate a T cell dysfunction as that of HIV infection, with elevated levels of cAMP and increased activation of protein kinase A type 1, we treated normal T cells with low dose (12.5 around IC50) of the cAMP analog 8-(4-chlorophenyl)-thio-cAMPS (8-CPT-cAMP). […] For in vivo use pretreatment of ribozymes to allow cellular uptake or introduction into cells as minigenes will be necessary.
We incubated blood CD3+ T cells with increasing concentrations of Ht31 (SEQ. ID. NO 2) peptide. In order to facilitate uptake, cells were treated with liposomes in the presence or absence of-peptide. The optimal concentrations of DOTAP liposomes and anti-CD3 antibody were titrated carefully in order to maintain the membrane stability and normal TCR/CD3-dependent activation of the T cells. Cells were incubated for 20 hours with DOTAP/peptide and incubations continued in the absence (solid bars) or presence of 8-CPT-cAMP (6.25 μM, hatched bars) and activated to proliferation by stimulation of TCR/CD3 T cell immune responsiveness was assessed as [3H]thymidine incorporation.
Next, the effect of the competitor peptide (Ht-31, 35 μM) on T cell proliferation was examined in the presence of increasing concentrations of 8-CPT-cAMP and compared to mock transfected cells treated with the same concentrations of 8-CPT-cAMP (FIG. 10). As shown previously for normal peripheral blood T cells. […] Compared to the left-shifted curves observed with T cells from HIV-infected patients or patients with CIV due to elevated levels of endogenous cAMP activating PKA type 1, the right-shift observed here would be expected to normalize the situation in patients.

[2] = test system: peripheral blood CD3+ T cells; assay: TCR/CD3 (anti-CD3) stimulated T cell proliferation, [3H]-thymidine incorporation; format: cell-based, human
Procedure: (§1) Human peripheral blood CD3+ T cells were purified by negative selection from 50 ml of heparin-treated blood from normal healthy donors (Ullevaal University Hospital Blood Center, Oslo. Norway) or patients. Briefly, peripheral blood mononuclear cells were isolated by density gradient (Lymphoprep, NycoMed, Oslo, Norway) centrifugation followed by negative selection using monodisperse magnetic beads directly coated with antibodies to CD14 and CD19 and rat anti-mouse IgG beads coated with antibodies to CD56 and a magnet. Magnetic beads were all from Dynal (Oslo, Norway, cat. no. 111.12, 111.04, and 110.11. respectively) whereas anti-CD56 antibody was from Pharmingen (San Diego, Calif., cat. no. 31660.d). All steps were performed at 4° C.
as §1, with “Peripheral blood” for “Human peripheral blood”, “Center, Oslo,” for “Center, Oslo.”, “selection using,” for “selection using”, “and 110.11,” for “and 110.11.”, “Calif., eat.” for “Calif., cat.”
Proliferation assays were performed by incubation of 0.75×10^6 CM+ T cells/ml in a 100 μl volume in that-bottom 96-well microtiter plates. Activation was achieved by subsequent addition of monodisperse magnetic beads coated with sheep anti-mouse IgG (Dynal. cat. no. 110.02) at a cell:bead ratio of 1:1 followed by addition of antiCD3 (clone SpvT3b) at a final dilution of 1:125,000 for the experiments shown. The optimal concentration of antibody was titrated carefully in the initial setup and parallel experiments at several different dilutions of antibody was always performed. Proliferation was analyzed by incubating, cells for 72 hours during which [^3H]thymidine was included for the last 16 hours. Cells were washed and harvested onto filters using a Scatron harvester (Suffolk, UK) and subsequently analyzed by β-scintillation counting. cAMP analogs, when used, were added 30 min prior to activation by addition of […] antibodies. 8-CPT-cAMP was from Sigorna (St. Louis, Mo.) and Sp- and Rp-8-Br-cAMPS were from BioLog Life Science Company (Bremen, Germany) and were all dissolved to concentrations of 4 to 10 mM in PBS and concentrations calculated using the extinction coefficients given by the manufacturer.

Nc1ncnc2c1nc(Sc1ccc(Cl)cc1)n2[C@@H]1O[C@@H]2COP(=O)(O)O[C@H]2[C@H]1O [8-CPT-cAMP, 8-(4-chlorophenylthio)cAMP, reference compound]
T cell proliferation in presence of cAMP analog ([1]; mock transfected normal T cells, 8-CPT-cAMP 12.5 μM, FIG. 8): approximately 20 % of control
IC50 ([1]; normal T cells incubated with liposomes and Ht31 peptide (35 μM), read-out: apparent IC50, inhibition of TCR/CD3 stimulated proliferation): 4.8 µM
IC50 ([1]; normal T cells mock transfected with liposomes only, read-out: IC50, inhibition of TCR/CD3 stimulated proliferation): ~1.8 µM and 1.8 µM
Hill coefficient of cAMP-inhibition curve ([2]; T cells from HIV seropositive individuals, n=18): 1.19 (1.13–1.40)
Inhibition of proliferation by 8-CPT-cAMP Hill coefficient ([2]; T cells from HIV+ asymptomatic patients, n = 8, median (25 to 75% range)): 1.18(1.09–1.36)^b
IC50 ([2]; T cells from HIV+ asymptomatic patients, n = 8, median (25 to 75% range), read-out: Inhibition of proliferation by 8-CPT-cAMP IC50): 2.26 µM
Inhibition of proliferation by 8-CPT-cAMP Hill coefficient ([2]; T cells from HIV+ symptomatic patients, n = 10, median (25 to 75% range)): 1.19(1.13–1.40)^o
IC50 ([2]; T cells from HIV+ symptomatic patients, n = 10, median (25 to 75% range), read-out: Inhibition of proliferation by 8-CPT-cAMP IC50): 1.87 µM
IC50 ([2]; T cells from a healthy blood donor, FIG. 1B, read-out: IC50, inhibition of TCR/CD3 stimulated proliferation): 6.11 µM
IC50 ([2]; T cells from a representative HIV-infected patient (#10 in Table 2a), FIG. 1B, read-out: IC50, inhibition of TCR/CD3 stimulated proliferation): 1.78 µM
Inhibition of proliferation by 8-CPT-cAMP Hill coefficient ([2]; T cells from normal controls, n = 8, median (25 to 75% range)): 1.59(1.40–1.81)
IC50 ([2]; T cells from normal controls, n = 8, median (25 to 75% range), read-out: Inhibition of proliferation by 8-CPT-cAMP IC50): 4.59 µM
Inhibition of proliferation by 8-CPT-cAMP Hill coefficient ([2]; T cells from patients on triple combination therapy, n = 9, median (25 to 75% range)): 1.35(1.33–1.68)
IC50 ([2]; T cells from patients on triple combination therapy, n = 9, median (25 to 75% range), read-out: Inhibition of proliferation by 8-CPT-cAMP IC50): 2.59 µM
Inhibition of proliferation by 8-CPT-cAMP (−Hill coefficient) ([2]; T cells of individual CVI patients #1-#7): 1.34 and 1.38 and 2.03 and 1.39 and 1.46 and 1.47 and 1.26
IC50 ([2]; T cells of individual CVI patients #1-#7, read-out: Inhibition of proliferation by 8-CPT-cAMP (IC50)): 3.68 µM and 3.36 µM and 3.16 µM and 2.66 µM and 2.34 µM and 2.98 µM and 2.26 µM
Inhibition of proliferation by 8-CPT-cAMP (−Hill coefficient) ([2]; median in 7 CVI patients): 1.39^§
IC50 ([2]; median in 7 CVI patients, read-out: Inhibition of proliferation by 8-CPT-cAMP (IC50)): 2.98 µM
Inhibition of proliferation by 8-CPT-cAMP (−Hill coefficient) ([2]; median in 8 healthy controls): 1.59
IC50 ([2]; median in 8 healthy controls, read-out: Inhibition of proliferation by 8-CPT-cAMP (IC50)): 4.59 µM
IC50 ([2]; one healthy control, FIG. 4B, read-out: IC50, inhibition of anti-CD3 stimulated T lymphocyte proliferation): 4.66 µM
IC50 ([2]; one representative CVI patient, FIG. 4B, read-out: IC50, inhibition of anti-CD3 stimulated T lymphocyte proliferation): 2.26 µM

From patent publication US7192932B1, “Use of immunomodulating agents” (Lauras AS, priority 1997, dated 2007)
